The source made the active and inactive calls.
Assays:
Format in all cases: functional, cell-based
RAW [1] = experiment: Antiinflammatory activity against mouse RAW cells assessed as inhibition of LPS-induced IL-6 production at 10 uM by Q-PCR analysis
RAW [2] = experiment: Antiinflammatory activity against mouse RAW cells assessed as inhibition of LPS-induced IL-23 production at 10 uM by Q-PCR analysis
RAW [3] = experiment: Antiinflammatory activity against mouse RAW cells assessed as inhibition of LPS-induced TNFalpha production at 10 uM by Q-PCR analysis

Measured: inhibition

CC(=O)O[C@@H]1C[C@@]23C[C@@]24CC[C@H](O[C@@H]2OC[C@@H](O)[C@H](O)[C@H]2O)C(C)(C)[C@@H]4CC=C3[C@]2(C)C[C@]3(O)O[C@H](C(=O)[C@@H]4OC4(C)C)[C@@H](C)[C@@H]3[C@@]12C
active: RAW [1] | RAW [2] | RAW [3]

CC(=O)O[C@@H]1C[C@@]23C[C@@]24CC[C@H](O[C@@H]2O[C@H](CO)[C@H](O)[C@H](O)[C@H]2O)C(C)(C)[C@@H]4CC[C@H]3[C@]2(C)C[C@]3(O)O[C@H](C(=O)[C@@H]4OC4(C)C)[C@@H](C)[C@@H]3[C@@]12C
active: RAW [1] | RAW [2] | RAW [3]
